# ChEMBL document CHEMBL1128755, “LTD4 Receptor binding activity of novel pyridine chromanols: qualitative correlation with pKa” (Bioorg Med Chem Lett, 1995)
# Tests used:
# [1] = Association constant (pKa) was determined; format: physicochemical
# [2] = biological target: T1, Cysteinyl leukotriene receptor 1 (Cavia porcellus, UniProt Q2NNR5); assay: Compound was tested for the inhibition of [3H]leukotriene D4 binding to LTD4 receptor in guinea pig lung membranes; format: cell membranes, Membrane
# T1 sequence (Q2NNR5 whole entry): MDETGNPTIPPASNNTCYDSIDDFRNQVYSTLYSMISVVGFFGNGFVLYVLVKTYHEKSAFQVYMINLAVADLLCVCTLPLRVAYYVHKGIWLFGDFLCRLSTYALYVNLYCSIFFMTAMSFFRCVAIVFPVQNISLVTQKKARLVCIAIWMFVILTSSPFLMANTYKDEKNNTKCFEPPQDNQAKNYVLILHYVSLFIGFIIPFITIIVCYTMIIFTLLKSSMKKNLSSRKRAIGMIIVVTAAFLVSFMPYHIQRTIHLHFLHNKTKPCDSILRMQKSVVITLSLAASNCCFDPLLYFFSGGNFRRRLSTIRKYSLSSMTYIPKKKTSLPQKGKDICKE
# [3] = Partition coefficient (logP); format: physicochemical; settings: octanol/water
pKa [1],Ki [2] [µM],logP [3],SMILES
4.81,1.64,2.04,O[C@@H]1c2cc(OCc3ccc4ccccc4n3)ccc2OC[C@@H]1Cc1cccnc1
5.25,> 100,0.66,O[C@@H]1c2cc(OCc3ccccn3)ccc2OC[C@@H]1Cc1cccnc1
-0.44,> 100,0.84,O[C@@H]1c2cc(OCc3cccc(F)n3)ccc2OC[C@@H]1Cc1cccnc1
1.52,0.24,0.99,Cc1nc(COc2ccc3c(c2)[C@@H](O)[C@@H](Cc2cccnc2)CO3)ccc1[N+](=O)[O-]
5.96,> 100,1.11,Cc1cccc(COc2ccc3c(c2)[C@@H](O)[C@@H](Cc2cccnc2)CO3)n1
0.72,23.4,1.27,O[C@@H]1c2cc(OCc3cccc(Cl)n3)ccc2OC[C@@H]1Cc1cccnc1
3.55,1.56,2.09,Cc1nc(COc2ccc3c(c2)[C@@H](O)[C@@H](Cc2cccnc2)CO3)ccc1Br

SMILES,pKa [1],Ki [2] [µM],logP [3]
c1ccc2ncccc2c1 [QUINOLINE],4.81,,
